Laboratory results published in US6369090B1, “Fungicidal mixture” (BASF Aktiengesellschaft, priority 1997, dated 2002).

What was measured:
Puccinia recondita = experiment: Curative action against Puccinia recondita on wheat (brown rust of wheat); format: in vivo; conditions: single active ingredient, 7 days
Protocol: The active ingredients, separately or together, were formulated as a 10% emulsion in a mixture of 63% by weight of cyclohexanone and 27% by weight of emulsifier, and diluted with water to the desired concentration.
The expected efficacies of the mixtures of the active ingredients were determined using Colby's formula [R. S. Colby, Weeds 15, 20-22 (1967)] and compared with the observed efficacies.
Colby's formula: E=x+y−x·y/100
E expected efficacy, expressed in % of the untreated control, when using the mixture, disclosed in DE Appl. 19617232.2, of the active ingredients I and II (=active ingredient mixture A) and the active ingredients III at the concentrations a and c […]
x efficacy, expressed in % of the untreated control, when using a mixture, disclosed in DE Appl. 19617232.2, of the active ingredients I and II at a concentration of a y efficacy, expressed in % of the untreated control, when using active ingredient III at a concentration of c Curative action against Puccinia recondita on wheat (brown rust of wheat) Leaves of wheat seedlings cv. “Frühgold” which had been grown in pots were dusted with spores of brown rust (Puccinia recondita). The pots were then kept for 24 hours in a chamber of high atmospheric humidity (90 to 95%) at 20 to 22° C. During this time, the spores germinated and the germinal tubes penetrated into the leaf tissue. The next day, the infected plants were sprayed to runoff point with an aqueous preparation of active ingredient which had been prepared from a stock solution comprising 10% of active ingredient, 63% of cyclohexanone and 27% of emulsifier. After the spray coating had dried on, the test plants were cultivated in a greenhouse at temperatures from 20 to 22° C. and at 65 to 70% relative atmospheric humidity for 7 days. The extent of the rust fungus development on the leaves was then determined.
(§1) The visually determined values for the percentage of infected leaf area were converted into efficacies as percent of the untreated control. Efficacy 0 means the same disease level as in the untreated control, efficacy 100 means 0% disease. The expected efficacies for active ingredient combinations were determined using Colby's formula (Colby, S. R. “Calculating synergistic and antagonistic responses of herbicide combinations”, Weeds, 15, p. 20-22, 1967) and compared with the observed efficacies.

[1] = system: Erysiphe graminis forma specialis tritici; experiment: Activity against powdery mildew of wheat (protective, wheat seedlings cv. Frühgold); format: in vivo; conditions: single active ingredient, 7 days
Description: The active ingredients, separately or together, were formulated as a 10% emulsion in a mixture of 63% by weight of cyclohexanone and 27% by weight of emulsifier, and diluted with water to the desired concentration. […]
Activity against powdery mildew of wheat
Leaves of wheat seedlings cv. “Frühgold” which had been grown in pots were sprayed to runoff point with an aqueous preparation of active ingredient which had been prepared from a stock solution comprising 10% of active ingredient, 63% of cyclohexanone and 27% of emulsifier and, 24 hours after the spraycoating had dried on, dusted with spores of powdery mildew of wheat (Erysiphe graminis forma specialis tritici). The test plants were subsequently placed in a greenhouse at from 20 to 24° C. and a relative atmospheric humidity of 60 to 90%. After 7 days, the extent of mildew development was determined visually as percent infection of the total leaf area.
as §1

| Structure (SMILES) | Efficacy in % of the untreated control (Puccinia recondita; 0.31 ppm in the spray liquor) [%] | Efficacy in % of the untreated control ([1]; 0.31 ppm in the spray liquor) [%] | Efficacy in % of the untreated control ([1]; 1.25 ppm in the spray liquor) [%] | Efficacy in % of the untreated control (Puccinia recondita; 1.25 ppm in the spray liquor) [%] |
| --- | --- | --- | --- | --- |
| Fc1ccc([C@]2(Cn3cncn3)O[C@@H]2c2ccccc2Cl)cc1 (racemic) [III.8, (2RS, 3RS)-1-[3-(2-chlorophenyl)-2,3-epoxy-2-(4-fluorophenyl)propyl]-1H-1,2,4-triazole] | 0 |  |  |  |
| CCCC1COC(Cn2cncn2)(c2ccc(Cl)cc2Cl)O1 (racemic) [III.24, (±)-1-{[2-(2,4-dichlorophenyl)-4-propyl-1,3-dioxolan-2-yl]methyl}-1H-1,2,4-triazole] | 0 | 8 | 8 | 0 |
| C[Si](Cn1cncn1)(c1ccc(F)cc1)c1ccc(F)cc1 [III.12, bis-(4-fluorophenyl)(methyl)-(1H-1,2,4-triazol-1-ylmethyl)silane] | 0 |  |  | 0 |
| CCCN(CCOc1c(Cl)cc(Cl)cc1Cl)C(=O)n1ccnc1 [III.23, N-propyl-N-[(2,4,6-trichlorophenoxy)ethyl]imidazole-1-carboxamide] | 0 | 0 | 0 | 0 |
| CC(C)(C)C(O)(CCc1ccc(Cl)cc1)n1cncn1 (stereo not drawn) [III.27, 1-(4-chlorophenyl)-4,4-dimethyl-3-(1H-1,2,4-triazol-1yl)pentan-3-ol] | 0 | 8 | 39 | 0 |
